Test results from patent US20240132431A1, “METHOD FOR ALKYLATING ACIDIC FUNCTIONAL GROUP” (Chugai Seiyaku Kabushiki Kaisha, priority 2021, published 2024).

Target: T1, Bcl-2 protein (Recombinant Human Bcl-2 Protein) (Homo sapiens, UniProt P10415)
T1 construct: purchased Novus NBP2-34889
Assay: Binding evaluation of mixture library compounds to Bcl-2 using AS-MS (affinity selection mass spectrometry)
Conditions: for ASMS ratio (%) n = 1: replicate n = 1; for ASMS ratio (%) n = 1 / ASMS ratio (%) n = 2: ASMS Ratio(%)=(A−C)/B×100; for ASMS ratio (%) n = 2: replicate n = 2
How it was run: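 Bcl-2 binding is scored from LC/MS signal retained with protein through gel-filtration spin columns, normalised to unfiltered and protein-free controls. Incubation: 20 μM protein, […] per compound, 1 h, 23° C.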

[1] = AS-MS, mixture of 1200 compounds, Bcl-2
[2] = AS-MS on the mixture of 1200 library compounds

T1 sequence (P10415 whole entry): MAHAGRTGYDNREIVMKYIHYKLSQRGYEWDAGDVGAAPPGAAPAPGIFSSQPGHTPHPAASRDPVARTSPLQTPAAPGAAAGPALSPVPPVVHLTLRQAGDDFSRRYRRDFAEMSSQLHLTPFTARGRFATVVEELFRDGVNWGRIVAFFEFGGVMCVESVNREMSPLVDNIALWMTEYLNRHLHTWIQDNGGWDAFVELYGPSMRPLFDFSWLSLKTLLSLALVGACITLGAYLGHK

Row | Compound | ASMS ratio (%) n = 1 [1] | ASMS ratio (%) n = 2 [1] | ASMS ratio (%) (n = 1) | ASMS ratio (%) (n = 2) | further results
1 | CCOc1cccc(-c2cc(C(=O)N3CCN(c4ccc(C(=O)NS(=O)(=O)CC56CC7CC(CC(C7)C5)C6)cc4)CC3)cc(C(C)(C)C)c2)c1 [B2A037-01, N-(1-Adamantylmethylsulfonyl)-4-[4-[3-tert-butyl-5-(3-ethoxyphenyl)benzoyl]piperazin-1-yl]benzamide] |  |  |  |  | ASMS ratio (%) n = 1 (AS-MS, mixture library, Bcl-2): 3.0%; ASMS ratio (%) n = 2 (AS-MS, mixture library, Bcl-2): 0.0%
2 | CCOc1cccc(C#Cc2ccccc2CN2CCN(c3ccc(C(=O)NCC(F)(F)F)cc3)CC2)c1 [B1K069-01, 4-[4-[[2-[2-(3-Ethoxyphenyl)ethynyl]phenyl]methyl]piperazin-1-yl]-N-(2,2,2-trifluoroethyl)benzamide] | 3.5% | −1.4% |  |  | 
3 | 4-[4-[[4-(3-Ethoxyphenyl)-2,6-dimethoxyphenyl]methyl]piperazin-1-yl]-N-propylbenzamide [B1M020-01] | 0.0% | 0.0% |  |  | 
4 | CCOc1cccc(-c2cc(C(=O)N3CCN(c4ccc(C(=O)N(C)CC56CC7CC(CC(C7)C5)C6)nn4)CC3)cc(C(C)(C)C)c2)c1 [B3A015-01, N-(1-Adamantylmethyl)-6-[4-[3-tert-butyl-5-(3-ethoxyphenyl)benzoyl]piperazin-1-yl]-N-methylpyridazine-3-carboxamide] |  |  |  |  | ASMS ratio (%) n = 1 [2]: 8.9%; ASMS ratio (%) n = 2 [2]: 3.0%
5 | CCOc1cccc(-c2cc(CN3CCN(c4ccc(C(=O)NCC56CC7CC(CC(C7)C5)C6)cc4)CC3)cc(OC(C)C)c2)c1 [B1A057-01, N-(1-Adamantylmethyl)-4-[4-[[3-(3-ethoxyphenyl)-5-propan-2-yloxyphenyl]methyl]piperazin-1-yl]benzamide] | 0.0% | 0.0% |  |  | 
6 | CCOc1cccc(-c2ccc(CN3CCN(c4ccc(C(=O)NCC(F)(F)F)cc4)CC3)c3ccccc23)c1 [B1K065-01, 4-[4-[[4-(3-Ethoxyphenyl)naphthalen-1-yl]methyl]piperazin-1-yl]-N-(2,2,2-trifluoroethyl)benzamide] | 5.9% | −5.6% |  |  | 
7 | CCOc1cncc(-c2ccc(C(=O)N3CCN(c4ccc(C(=O)NS(=O)(=O)CCC(F)(F)F)cc4)CC3)cc2C)c1 [B2N026-01, 4-[4-[4-(5-Ethoxypyridin-3-yl)-3-methylbenzoyl]piperazin-1-yl]-N-(3,3,3-trifluoropropylsulfonyl)benzamide] |  |  | −1.5% | −0.7% | 
8 | CCOc1cncc(-c2ccc(CN3CCN(c4ccc(C(=O)NS(=O)(=O)CCC(F)(F)F)cc4)CC3)c(OC)c2)c1 [B2N054-01, 4-[4-[[4-(5-Ethoxypyridin-3-yl)-2-methoxyphenyl]methyl]piperazin-1-yl]-N-(3,3,3-trifluoropropylsulfonyl)benzamide] |  |  | 0.0% | 0.0% | 
9 | CCOc1cncc(-c2cc(CN3CCN(c4ccc(C(=O)NS(=O)(=O)CCC(F)(F)F)cc4)CC3)cc(OCC)c2)c1 [B2N056-01] |  |  | 0.0% | 0.0% | 
10 | CCOc1cncc(-c2cnn(-c3cc(C(=O)N4CCN(c5ccc(C(=O)N(CC)CC)nn5)CC4)cc(C(F)(F)F)c3)c2)c1 [B4J022-01, 6-[4-[3-[4-(5-Ethoxypyridin-3-yl)pyrazol-1-yl]-5-(trifluoromethyl)benzoyl]piperazin-1-yl]-N,N-diethylpyridazine-3-carboxamide] |  |  |  |  | ASMS ratio (%) n = 1 [2]: 0.2%; ASMS ratio (%) n = 2 [2]: −0.7%
11 | CCOc1cncc(-c2ccc(CN3CCN(c4ccc(C(=O)NS(=O)(=O)c5ccc(NCCSc6ccccc6)c(C(F)(F)F)c5)cc4)CC3)c3ccccc23)c1 [B2R066-01, 4-[4-[[4-(5-Ethoxypyridin-3-yl)naphthalen-1-yl]methyl]piperazin-1-yl]-N-[4-(2-phenylsulfanylethylamino)-3-(trifluoromethyl)phenyl]sulfonylbenzamide] |  |  | 19.8% | −10.7% | 
12 | CCOc1cccc(-c2csc(C(=O)N3CCN(c4ccc(C(=O)NCC56CC7CC(CC(C7)C5)C6)cc4)CC3)c2)c1 [B1A023-01, N-(1-Adamantylmethyl)-4-[4-[4-(3-ethoxyphenyl)thiophene-2-carbonyl]piperazin-1-yl]benzamide] | 4.0% | 0.8% |  |  | 
13 | CCOc1cncc(-c2ccccc2CN2CCN(c3ccc(C(=O)NS(=O)(=O)CCC(F)(F)F)cc3)CC2)c1 [B2N046-01, 4-[4-[[2-(5-Ethoxypyridin-3-yl)phenyl]methyl]piperazin-1-yl]-N-(3,3,3-trifluoropropylsulfonyl)benzamide] |  |  | 0.0% | −1.2% | 
14 | CCOc1cccc(-c2cc(OC)c(CN3CCN(c4ccc(C(=O)NS(=O)(=O)C(C)(C)C)nn4)CC3)c(OC)c2)c1 [B2L085-01, N-tert-Butylsulfonyl-6-[4-[[4-(3-ethoxyphenyl)-2,6-dimethoxyphenyl]methyl]piperazin-1-yl]pyridazine-3-carboxamide] |  |  | 0.0% | 0.0% | 
15 | CCOc1cncc(C#Cc2ccccc2C(=O)N2CCN(c3ccc(C(=O)NCC(F)(F)F)cc3)CC2)c1 [B1K030-01, 4-[4-[2-[2-(5-Ethoxypyridin-3-yl)ethynyl]benzoyl]piperazin-1-yl]-N-(2,2,2-trifluoroethyl)benzamide] | 0.0% | 0.9% |  |  | 
16 | CCOc1cncc(C#Cc2cc(C(=O)N3CCN(c4ccc(C(=O)NS(=O)(=O)C(C)(C)C)nn4)CC3)cc(C(F)(F)F)c2)c1 [B2L020-01, N-tert-Butylsulfonyl-6-[4-[3-[2-(5-ethoxypyridin-3-yl)ethynyl]-5-(trifluoromethyl)benzoyl]piperazin-1-yl]pyridazine-3-carboxamide] |  |  | 0.0% | 0.0% | 
17 | CCOc1cccc(-c2cc(CN3CCN(c4ccc(C(=O)Nc5ccc(OC)cc5)nn4)CC3)cc(OC(F)(F)F)c2)c1 [B1O089-01, 6-[4-[[3-(3-Ethoxyphenyl)-5-(trifluoromethoxy)phenyl]methyl]piperazin-1-yl]-N-(4-methoxyphenyl)pyridazine-3-carboxamide] |  |  |  |  | ASMS ratio (%) n = 1 [2]: 3.8%; ASMS ratio (%) n = 2 [2]: −5.3%
18 | CCOc1cccc(-c2cc(CN3CCN(c4ccc(C(=O)NS(=O)(=O)c5ccc(NCCSc6ccccc6)c(C(F)(F)F)c5)cc4)CC3)cc(C(F)(F)F)c2)c1 [B2R061-01, 4-[4-[[3-(3-Ethoxyphenyl)-5-(trifluoromethyl)phenyl]methyl]piperazin-1-yl]-N-[4-(2-phenylsulfanylethylamino)-3-(trifluoromethyl)phenyl]sulfonylbenzamide] |  |  | 9.1% | −6.0% | 
19 | CCOc1cncc(-c2csc(CN3CCN(c4ccc(C(=O)N(C)CC56CC7CC(CC(C7)C5)C6)nn4)CC3)c2)c1 [B3A094-01, N-(1-Adamantylmethyl)-6-[4-[[4-(5-ethoxypyridin-3-yl)thiophen-2-yl]methyl]piperazin-1-yl]-N-methylpyridazine-3-carboxamide] |  |  |  |  | ASMS ratio (%) n = 1 [2]: 3.7%; ASMS ratio (%) n = 2 [2]: 0.5%
